Measurements from patent US4920129A, “Anti-ulcerative imidazopyridine compounds” (Fujisawa Pharmaceutical Company, Ltd., priority 1987, dated 1990).

Experiments:
[1] = system: gastrin-stimulated acid secretion; assay: Effect on gastrin-stimulated acid secretion in Heidenhain pouch dogs; format: in vivo; settings: 3.2 mg/kg, oral, tetragastrin 10 μg/kg/hr infusion, gastric juice collected 3 hr after drug
Method: EFFECT ON GASTRIN-STIMULATED ACID SECRETION IN HEIDENHAIN POUCH DOGS
Dogs equipped with Heidenhain pouches were placed on tables and restrained minimally in pavlov slings. Gastrin(tetragastrin) in 0.9% saline was continuously infused through the cephalic vein at a dose of 10 μg/kg/hr over a 5- to 6-hr period in a volume of 0.1 ml/kg/min. After acid secretion had reached a plateau (usually within 2 hr), drug was given orally in a volume of 1 ml/kg. Gastric juice was collected at 15 min intervals for 1 hr before and for 3 hr after drug administration. The volume of each sample was determined, and an aliquot was titrated to pH 7.0 with 0.1M NaOH. Acid output was expressed as μEq H^+ /15 min. The effect of drug was described as percent drug-induced change in acid secretion.

stress ulcer = assay: Inhibition on stress ulcer (water-bath immobilization); format: in vivo, Sprague-Dawley rats; settings: 32 mg/kg, oral, just before immobilization; 7 hours; rats
Method: INHIBITION ON STRESS ULCER
Five Sprague-Dawley rats weighing about 200 g were used per group. Each animal was immobilized in a small cage and put in a water bath allowing to respire. The temperature of the water bath kept at 22° C. The test compound was administered orally just before the immobilization. Seven hours later, the animals were sacrificed and their stomachs were removed. The stomach was then fixed with 2% formalin. The area of ulcers was measured for each animal. The mean area (mm^2) in the medicated animals was compared with that in the control animals.

For `C#CCc1c(C)nc2c(NCc3c(C)cccc3NC(=O)OC)cccn12` [(1), 8-(2-Methyl-6-methoxycarbonylaminobenzylamino)-3-(2-propynyl)-2-methylimidazo[1,2-a]pyridine], the “Maximum inhibition % (acid secretion)” value [1] was 100% and the “Inhibition % (area of ulcers)” value (stress ulcer) was 100%.
